Laboratory results published in paper PMC5955599, “The HTLV-1 gp21 fusion peptide inhibits antigen specific T-cell activation in-vitro and in mice” (PLoS Pathogens, 2018).

System: MOG35-55–antigen specific T-cells
Assay: T-bet and Gata3 expression detected by FACS
Assay type: cell-based, mouse (C57Bl/6J)
Settings: peptide at 10μM, APC activation, n = 3
Protocol: (A-B) MOG35-55–antigen specific T-cells were activated by irradiated MOG35-55 presenting APCs, in the presence of the HTLV FP at 10μM. Total RNA was isolated 24 hours following activation and mRNA expression levels were determined by qRT-PCR. The values of each gene were normalized to Rpl13a as a housekeeping control. The HTLV FP reduces TBX21 (T-bet) mRNA expression and elevates GATA3 mRNA expression. The data is presented as arbitrary units. n≥3. (C-H) MOG35-55–antigen specific T-cells were activated by irradiated MOG35-55 presenting APCs, in the presence of either HTLV or HIV FP at 10μM. Samples were fixed in 4% PFA and stained with anti T-bet-APC and anti Gata3-FITC antibodies (C-D) 24, (E-F) 48 and (G-H) 72 hours following activation. Each time point is represented as cell count vs. APC or FITC fluorescence histogram. Analysis was performed using LSR-II flow cytometer (BD) and FlowJo cell analysis software (FlowJo, LLC). The HTLV FP reduces T-bet expression and elevates Gata3 expression. n = 3. One-way ANOVA was used for statistical analysis. ns, not significant; *P<0.05;** P<0.01.
Antigen-specific T-cells were plated onto round 12-well plates (10^6 cells/ well) and activated with 5x10^5 irradiated (25 gray) APC and 5μg/ml of MOG p35-55 in the presence or absence of relevant peptides. Cells were washed with PBS, blocked (5% Donkey serum, 2% BSA and 0.1% Triton in PBS) and fixed with 4% Paraformaldehyde (PFA) 24 hour following activation. Cells were then stained with Gata3-FITC and T-bet-APC fluorochrome-labeled monoclonal mouse antibodies (purchased from Miltenyi Biotec) according to Miltenyi Biotec protocols. Samples were then collected using LSR-II flow cytometer and analyzed with FlowJo cell analysis software.

AVPVAVWLVSALAMGAGVAGGITGSMSLASGKS [HTLV FP, gp21 fusion peptide of HTLV-1, MT-2 isolate]
Gata3 expression (protein), 24 hours (24 hours following activation): elevated Gata3 expression | T-bet expression (protein), 24 hours (24 hours following activation): reduced T-bet expression | Gata3 expression (protein), 48 hours (48 hours following activation): elevated Gata3 expression | T-bet expression (protein), 48 hours (48 hours following activation): reduced T-bet expression | Gata3 expression (protein), 72 hours (72 hours following activation): elevated Gata3 expression | T-bet expression (protein), 72 hours (72 hours following activation): no difference was observed
